In brackets after ≈: the same amount, converted by molar mass. Several values for one entry are separate records, joined by “and”; a condition that tells them apart may be missing. Equal entries are not always repeated. Marks after values point to notes of the source that are not given here.
How the values were obtained:
[1] = Autoxidation of precursors on agar plates without actively growing mycelium (control samples); assay type: physicochemical; settings: 1 mM precursor in GPA agar; for Precursors autoxidation: without mycelium; for autoxidation (in words): control samples without mycelium; on Precursors autoxidation: key: - no; -/+ - slightly; + high; ++ very high
Description: (§1) Agar-plate screening of several different precursors, benzoic and naphthalene derivatives was performed using fungal biomass as a biocatalyst (Table 1). Among these precursors were chemicals consisting of amino-, hydroxy-, nitro-, sulfonic- and carboxy- substituents. The ability of the fungi to grow in the presence of the precursors and to transform the latter into coloured products was monitored during 14 days of the experiment. […] In order to check the autoxidation ability of the precursors, the appearance of their coloured products without the presence of actively growing mycelium was monitored (control samples).
(§2) The agar-plate screening test was performed using sterile 24-well tissue culture plates (16.2 mm in diameter). Each well contained 2.5 mL (± 0.2 mL) of sterile GPA medium with the addition of 2% agar and a precursor at a concentration of 1 mM. Each well was inoculated with one agar plug (3 mm in diameter) from the leading edge of colony, which had been maintained on MEA for at least 7 days at 25°C. The plates were incubated at 25°C, and the ability of the fungi to grow and transform the precursors into coloured products was monitored over the next 14 days.

[2] = Cyclic voltammetry of precursors (oxidation and reduction potentials); assay type: physicochemical; settings: for Eo (oxidation potential) / Er (reduction potential): 1 mM precursor, 100 mM Na-tartrate buffer pH 4.5, graphite working electrode, Ag/AgCl reference; for oxidation and reduction peaks: pH 4.5, scan rates of 25 to 200 mV/s
Description: To find correlations between the degree of precursor transformation by fungi and its oxidation potential, cyclic voltammetry (CV) was done. All the tested compounds were characterized using CV at a graphite working electrode at pH 4.5.
Cyclic voltammetry of the tested precursors was performed using an MTM-Anko apparatus type M161 (Poland) equipped with a graphite working electrode, a platinum counter electrode, and an Ag/AgCl reference electrode. The precursors were dissolved using 100 mM Na-tartrate buffer, pH 4.5, to 1 mM final concentration. […] All potentials in this work were referred to the Ag/AgCl reference electrode.

Caco-2 cells = assay: Neutral Red uptake assay (NRU) cytotoxicity; assay type: cell-based, human; settings: Caco-2, precursor itself; for IC50: Homo sapiens
Description: The cytotoxicity of precursors and products was tested using the Neutral Red uptake assay (NRU) with Caco-2 cells (Table 5). The EU classifies a chemical to be not environmentally toxic if the IC50 is above 0.1 mg/mL, which was the case for the selected products as measured with the NRU test. […] In the case of the dyes obtained after transformation of AHBS and ANS by FF25, AB123, or TV7, all the samples had IC50's of more than 1 mg/mL and were essentially non-toxic. In the case of control cultures, growing without the addition of precursors, only the sample of TV7 was slightly toxic (IC50 = 0.85 mg/mL) while other control cultures (AB123, CU139, and FF25) had IC50's higher than one (Table 5).
The toxicity of precursors and products was evaluated using the Neutral Red uptake assay (NRU) with Caco-2 human intestinal cell-line as an in vitro test system. Samples of products were lyophilized and then dissolved in dimethyl sulfoxide (DMSO) to a stock solution concentration of 100 mg/mL. The cytotoxicity of dyes was expressed as the half-maximal inhibitory concentration (IC50 - mg/mL), where values higher than 1 represented low cytotoxicity, values within the range from 0.1 to 1 represented medium cytotoxicity, and values below 0.1 represented high cytotoxicity of samples [10]. Additionally, the cytotoxicity of the fungal liquid culture without precursors and products was checked as a control.

[3] = tested on: Abortiporus biennis (AB123); assay: Agar-plate screening test, transformation of precursors into coloured products; assay type: cell-based; settings: strain AB123, 1 mM precursor
Description: as §1
(§3) The colour intensity of the products obtained during the biotransformation of the precursors by fungi was analyzed after 7 days of cultivation. This intensity was expressed by different numbers; the value 0 expressed a lack of colour and the values in the range from 1 to 4 expressed a rising intensity of colour.
as §2

Fomes fomentarius (FF25) = assay: as above; assay type: cell-based; settings: strain FF25, 1 mM precursor
Description: as §1, §3, §2

Cerrena unicolor (CU139) = assay: as above; assay type: cell-based; settings: strain CU139, 1 mM precursor
Description: as §1, §3, §2

[4] = tested on: Trametes versicolor (TV7); assay: as above; assay type: cell-based; settings: strain TV7, 1 mM precursor
Description: as §1, §3, §2

SMILES	Eo (oxidation potential) ([2]; scan rate 50 mV/s) [mV]	Er (reduction potential) ([2]; scan rate 50 mV/s)	Precursors autoxidation [1]	autoxidation (in words) [1]	other results
Nc1cc(S(=O)(=O)O)cc([N+](=O)[O-])c1O [AHNBS, 3-amino-4-hydroxy-5-nitrobenzenesulfonic acid]	579	-92 mV	+	very rapid and very intensive autoxidation	
Oc1ccccc1O [Cat, 1,2-dihydroxybenzene]	548	285 mV	-		
Oc1ccc2ccc(O)cc2c1 [DHN, 2,7-dihydroxynaphtalene]	672		-/+	very slight autoxidation	IC50 Precursor (Caco-2 cells): 107 ± 3.6 µg/mL (≈ 668 µM)
O=S(=O)([O-])c1ccc2cc(O)ccc2c1.[Na+] [HNSA, 6-hydroxy-2-naphthalenesulfonic acid sodium salt]	893	-144 mV	-		
Nc1ncccc1O [Precursor 2A3HP, 2-amino-3-hydroxypyridine]	647		-/+	very slight autoxidation	IC50 (Caco-2 cells): 55 ± 28 µg/mL (≈ 499 µM)
O=Cc1ccccc1S(=O)(=O)[O-].[Na+] [Precursor 2FBSA, 2-formylbenzenesulfonic acid sodium salt]			-		oxidation and reduction peaks [2]: did not exhibit
O.O.O.O.Oc1ccccc1-c1ccccc1.[Na] [Precursor 2PP, 2-phenylphenol sodium salt tetrahydrate]	790		-		growth of mycelium in the presence of precursor [3]: unable to grow; growth of mycelium in the presence of precursor (Fomes fomentarius (FF25)): unable to grow; growth of mycelium in the presence of precursor (Cerrena unicolor (CU139)): unable to grow; growth of mycelium in the presence of precursor [4]: unable to grow
O.O=C(O)c1cc(S(=O)(=O)O)ccc1O [Precursor 5SSA, 5-sulfosalicylic acid hydrate]			-		oxidation and reduction peaks [2]: did not exhibit
O=S(=O)(O)c1cc(O)c(O)c(S(=O)(=O)O)c1 [dHBdSA, 4,5-dihydroxy-1,3-benzene-disulfonic acid]			-		Eo (oxidation potential) ([2]; scan rate 25 mV/s): 914^b mV

Second part, led by results:

Eo (oxidation potential) ([2]; scan rate 50 mV/s) [mV]	Er (reduction potential) ([2]; scan rate 50 mV/s)	SMILES	Precursors autoxidation [1]	autoxidation (in words) [1]	other results
818		Nc1ccc(S(=O)(=O)O)c(N)c1 [2,4DABS, 2,4-diaminobenzenesulfonic acid]	-		
433	-356 mV and -356^a mV	Nc1ccc(N)c(S(=O)(=O)O)c1 [2,5DABS, 2,5-diaminobenzenesulfonic acid]	-/+	very slight autoxidation	IC50 (Caco-2 cells): > 1000 µg/mL
518	-103 mV	Nc1cc(S(=O)(=O)O)ccc1O [AHBS, 3-amino-4-hydroxybenzenesulfonic acid]	-		IC50 (Caco-2 cells): > 1000 µg/mL
680		Nc1cccc2c(S(=O)(=O)O)cccc12 [ANS, 5-amino-1-naphthalenesulfonic acid]	-		IC50 (Caco-2 cells): > 1000 µg/mL
968	5.4^a mV	Nc1cccc(S(=O)(=O)O)c1 [Precursor 3ABS, 3-aminobenzenesulfonic acid]	-		
251		Nc1c(O)cc(S(=O)(=O)O)c2ccccc12 [Precursor 4AHNS, 4-amino-3-hydroxy-1-naphthalenesulfonic acid]	++	very rapid and very intensive autoxidation	
499		Nc1ccc2cc(S(=O)(=O)O)cc(O)c2c1 [Precursor 6AHNS, 6-amino-4-hydroxy-2-naphthalenesulfonic acid]	-/+	very slight autoxidation	
1013	-0.5 mV	Nc1ccccc1S(=O)(=O)O [Precursor A2SA, aniline-2-sulfonic acid]	-		
